Measured values reported in article PMC5454942, “The Potential of Triterpenoids from Loquat Leaves (Eriobotrya japonica) for Prevention and Treatment of Skin Disorder” (International Journal of Molecular Sciences, 2017).
In brackets after ≈: the same amount, converted by molar mass. Several values for one entry are separate records, joined by “and”; a condition that tells them apart may be missing. Equal entries are not always repeated.

What was measured:
[1] = tested on: Propionibacterium acnes; assay: Anti-bacterial assay (growth inhibition, MIC/MBC by broth microdilution); type: cell-based; details: for activity against P. acnes (in words): at their maximum solubility; for Inhibition Rate (P. acnes growth): concentration 100 μg/mL; for MBC / MIC: P. acnes, broth microdilution
Procedure: The antibacterial assay was based mostly on the methods described by Tanaka et al. with slight modification. Propionibacterium acne (NBRC 107605) was used for the antibacterial assay. A single colony of the test strain was taken and 5 mL of Gifu anaerobic medium (GAM) broth (Nissui, Tokyo) was added to it. This culture was incubated at 37 °C for 30 h. It was then added to the bacterial suspension to prepare a bacterial concentration at 10^5 CFU/mL. The bacterial solution was used for the subsequent antibacterial assay. Each compound was dissolved in DMSO, and benzalkonium chloride (Wako) was used as a positive control. The plate was incubated at 37 °C for 30 h. Finally, bacterial growth was measured by a microplate reader at 630 nm. The MIC and MBC were evaluated by the standard broth microdilution method.

[2] = tested on: NHDF cells; assay: Skin type I collagen synthesis promoting assay (ELISA, with MTT); type: cell-based, human; details: fold of control
Procedure: The assay for measuring the promotion of skin collagen synthesis was described by Kishikawa et al.. Adult NHDF cells (Lonza, Tokyo) were routinely maintained in 10% FBS and 1% antibiotic-antimycotic (Invitrogen) in Dulbecco’s modified Eagle’s medium (DMEM, Wako). After growing to confluence, cells at a density of 5 × 10^3 cells/well were seeded on 96-well plates for 24 h before the treatment. The medium was replaced with a mixture of 1 μL of sample solution (DMSO < 0.5% per well) and 99 μL of DMEM supplemented with 0.5% FBS. After 72 h of cultivation, the amount of collagen in the medium was measured using a human type I collagen enzyme-linked immunosorbent assay (ELISA) kit (ACEL, Kanagawa, Japan). The amount of collagen production was calculated using a standard curve prepared by measurement by the same ELISA. The cells remaining in the 96-well plate were subjected to an MTT assay. Ascorbic acid (100 μM, Wako) was used as a positive control.

[3] = tested on: RBL-2H3 cells; assay: β-hexosaminidase release from IgE-stimulated RBL-2H3 mast cells; type: cell-based, rat; details: 25 μg/mL
Procedure: (§1) The anti-allergy assay was based mostly on the methods described by Zhu et al. and Yun et al. with slight modification. Rat basophilic leukemia (RBL-2H3) cells were obtained from the Riken Bio-resource Center Cell Bank (Tsukuba, Japan). RBL-2H3 cells were incubated in EMEM medium containing 10% FBS and 1% antibiotics–antimycotics at 37 °C. The cells were seeded on a 96-well plate (2 × 10^5 cells/well). After 24 h of incubation, the medium was supplemented with 0.5 μg/mL anti-DNP (dinitrophenol) mouse immunoglobulin E (IgE) (Sigma-Aldrich). After an additional 24 h of incubation, the medium was replaced with 100 μL of Tyrode buffer. The sample dissolved in DMSO (<0.5% per well) was added, and the cell plate was incubated again for 30 min, then replaced with 100 μL of tyrode buffer containing 50 μg/mL DNP-bovine serum albumin (BSA) (Invitrogen, Carlsbad, CA, USA). After 1 h of incubation, 50 μL of the supernatant was collected from each well and mixed with 50 μL of substrate solution (p-nitrophenyl-N-acetyl-β-glucosaminide, 2 mM; Sigma-Aldrich) in a new 96-well plate. The mixture was incubated at room temperature on a shaker for 3 h. Finally, 100 μL of stop solution was added, and the absorbance was read at 405 nm. A parallel MTT experiment was performed to measure the cell viability. The MTT experiment was done exactly as described.

[4] = tested on: B16 melanoma cells; assay: Cell viability of B16 melanoma cells (MTT); details: for Inhibition rate (100% − cell viability): B16 cells; for CC50 cell viability / CC50: B16 melanoma cells, MTT; for CC50: read-out: CC50 (cell viability)
Procedure: (§2) This assay was performed as described by Arung et al.. The mouse melanoma cell line B16 was obtained from the Riken Bioresource Center Cell Bank (Tsukuba, Japan). The B16 melanoma cells were maintained in Eagle’s Minimal Essential Medium (EMEM, Nissui Chemical, Tokyo) supplemented with 10% (v/v) fetal bovine serum (FBS; Gibco, Carlsbad, CA, USA) and 0.09 mg/mL theophylline (Sigma-Aldrich, St. Louis, MO, USA). […] After 24 h, test samples were dissolved in DMSO (<0.2% per well) and sample solution were added to each well. Arbutin (Tokyo Kasei Kogyo, Tokyo) was used as a positive control. The cells were incubated for an additional 48 h, and then the medium was replaced with fresh medium containing each sample again. After 24 h, the melanin content and the cell viability were measured using a microplate reader (BioTek-ELX800, BioTek Instruments, Winooski, VT, USA) at 405 nm and 570 nm, respectively. Cell viability was measured using the MTT (3-(4,5-dimethylthiazol-2-yl)-2,5-diphenyltetrazolium bromide) method.

[5] = tested on: B16 melanoma cells; assay: Anti-melanogenesis assay (melanin content); type: cell-based, mouse; details: for Inhibition rate (100% − melanin synthesis): B16 cells; for IC50 melanin / IC50: B16 melanoma cells; for IC50: read-out: IC50 (melanin synthesis)
Procedure: as §2

[6] = tested on: RBL-2H3 cells; assay: Cell viability of RBL-2H3 cells (parallel MTT); type: cell-based, rat; details: 25 μg/ml, RBL-2H3 cells
Procedure: as §1

IC50 melanin [5] [µg/mL]	IC50 [5] [µM]	MIC [1] [µg/mL]	Structure (SMILES)	activity against P. acnes (in words) [1]	Inhibition Rate (P. acnes growth) [1]	CP/CV value (collagen production %/cell viability %) ([2]; 5 μg/mL)	CP/CV value (collagen production %/cell viability %) ([2]; 10 μg/mL)	Inhibition Rate (β-hexosaminidase release) [3] [%]	Inhibition rate (100% − cell viability) ([4]; 1 μg/ml) [%]	Inhibition rate (100% − cell viability) ([4]; 2.5 μg/ml) [%]	Inhibition rate (100% − cell viability) ([4]; 5 μg/ml) [%]	Inhibition rate (100% − cell viability) ([4]; 10 μg/ml) [%]	CC50 cell viability [4] [µg/mL]	CC50 [4] [µM]	Inhibition rate (100% − melanin synthesis) ([5]; 1 μg/ml) [%]	Inhibition rate (100% − melanin synthesis) ([5]; 2.5 μg/ml) [%]	Inhibition rate (100% − melanin synthesis) ([5]; 5 μg/ml) [%]	Inhibition rate (100% − melanin synthesis) ([5]; 10 μg/ml) [%]	Cell viability [6] [%]	MBC [1] [µg/mL]	also measured
7.8 (≈ 16 µM)	16.1	–	COC(=O)[C@]12CC[C@@H](C)[C@H](C)[C@H]1C1=CC[C@@H]3[C@@]4(C)C[C@@H](O)[C@H](O)C(C)(C)[C@@H]4CC[C@@]3(C)[C@]1(C)CC2 [Compound 6, methyl corosolate]	active	77.9 ± 1.6%	2.4	3.4 and 3.6	2.4 ± 14.1	4.5 ± 13.7	10.5 ± 10.9	15.4 ± 5.1	59.4 ± 7.0	9.1 (≈ 18.7 µM)	18.7	0.0 ± 1.9	2.8 ± 4.5	32.7 ± 1.5	63.5 ± 2.7	97.6 ± 14.1	–	–
> 20.0	> 30.9	100 (≈ 158 µM)	C[C@@H]1CC[C@]2(C(=O)O)CC[C@]3(C)C(=CC[C@@H]4[C@@]5(C)C[C@@H](O)[C@H](OC(=O)/C=C\c6ccc(O)cc6)C(C)(C)[C@@H]5CC[C@]43C)[C@@H]2[C@]1(C)O (relative stereo) [Compound 18, 3-O-cis-p-coumaroyl tormentic acid]	active	103.5 ± 2.2%	1.1	–	–	7.0 ± 8.8	6.6 ± 11.1	12.6 ± 8.4	42.4 ± 14.9	12.6 (≈ 19.8 µM)	19.5	0.0 ± 2.1	0.0 ± 5.3	0.0 ± 3.8	35.6 ± 1.1	104.6 ± 6.7	200 (≈ 315 µM)	Inhibition rate (100% − cell viability) ([4]; 20 μg/ml): 80.1 ± 9.5%; Inhibition rate (100% − melanin synthesis) ([5]; 20 μg/ml): 47.1 ± 6.0%
> 20.0	> 30.9	100 (≈ 158 µM)	C[C@@H]1CC[C@]2(C(=O)O)CC[C@]3(C)C(=CC[C@@H]4[C@@]5(C)C[C@@H](O)[C@H](OC(=O)/C=C/c6ccc(O)cc6)C(C)(C)[C@@H]5CC[C@]43C)[C@@H]2[C@]1(C)O (relative stereo) [Compound 17, 3-O-trans-p-coumaroyl tormentic acid]	active	101.4 ± 2.1%	1.2	–	–	0.0 ± 8.4	5.1 ± 6.0	10.7 ± 10.0	41.1 ± 9.2	15.6 (≈ 24.6 µM)	24	2.8 ± 0.9	6.2 ± 1.7	11.1 ± 0.6	29.4 ± 6.8	99.8 ± 7.0	200 (≈ 315 µM)	Inhibition rate (100% − cell viability) ([4]; 20 μg/ml): 61.0 ± 1.6%; Inhibition rate (100% − melanin synthesis) ([5]; 20 μg/ml): 30.5 ± 6.0%

Continued, compound first:

Structure (SMILES)	IC50 melanin [5] [µg/mL]	IC50 [5] [µM]	MIC [1] [µg/mL]	activity against P. acnes (in words) [1]	Inhibition Rate (P. acnes growth) [1]	CP/CV value (collagen production %/cell viability %) ([2]; 5 μg/mL)	CP/CV value (collagen production %/cell viability %) ([2]; 10 μg/mL)	Inhibition Rate (β-hexosaminidase release) [3] [%]	Inhibition rate (100% − cell viability) ([4]; 1 μg/ml) [%]	Inhibition rate (100% − cell viability) ([4]; 2.5 μg/ml) [%]	Inhibition rate (100% − cell viability) ([4]; 5 μg/ml) [%]	Inhibition rate (100% − cell viability) ([4]; 10 μg/ml) [%]	CC50 cell viability [4] [µg/mL]	CC50 [4] [µM]	Inhibition rate (100% − melanin synthesis) ([5]; 1 μg/ml) [%]	Inhibition rate (100% − melanin synthesis) ([5]; 2.5 μg/ml) [%]	Inhibition rate (100% − melanin synthesis) ([5]; 5 μg/ml) [%]	Inhibition rate (100% − melanin synthesis) ([5]; 10 μg/ml) [%]	Cell viability [6] [%]	MBC [1] [µg/mL]	also measured
C[C@H]1[C@H](C)CC[C@]2(C(=O)O)CC[C@]3(C)C(=CC[C@@H]4[C@@]5(C)CCC(=O)C(C)(C)[C@@H]5CC[C@]43C)[C@H]12 [Compound 13, 3-oxours-12-en-28-oic acid]	8.1 (≈ 17.8 µM)	18	–	–	– (no inhibition)	1.2	1.4	–	39.1 ± 2.6	42.7 ± 2.1	51.5 ± 3.7	80.3 ± 3.0	4.0 (≈ 8.8 µM)	8.9	41.0 ± 2.1	39.7 ± 0.6	45.5 ± 2.7	52.9 ± 0.6	85.6 ± 4.2	–	CP/CV value (collagen production %/cell viability %) ([2]; 1 μg/mL): 1.2; Inhibition rate (100% − melanin synthesis) ([5]; 0.5 μg/ml): 37.4 ± 1.1%
COC(=O)[C@]12CCC(C)(C)C[C@@H]1C1=CC[C@@H]3[C@@]4(C)C[C@@H](O)[C@H](O)C(C)(C)C4CC[C@@]3(C)[C@]1(C)CC2 (some centres unmarked) [Compound 5, Methyl maslinate]	6.2 (≈ 12.7 µM)	12.8	–	–	– (no inhibition)	1.2	–	8.5 ± 9.5	4.7 ± 8.1	1.3 ± 5.2	12.1 ± 8.6	75.9 ± 0.5	8.4 (≈ 17.3 µM)	17.5	0.0 ± 4.4	1.6 ± 0.6	44.8 ± 4.3	68.2 ± 0.6	105.8 ± 1.1	–	–
